Reference: patent US9302999B2, “Substituted triazoles as herbicides” (E. I. DU PONT DE NEMOURS AND COMPANY, priority 2012, dated 2016)
Like-named read-outs stand apart in the source and are kept apart here.

Assays:
Type in all cases: in vivo
rice (Oryza sativa) = assay: Test C flooded paddy test: rice; conditions: scale 0 to 100 (0 no effect, 100 complete control); for plant injury at 125 g/ha / plant injury at 250 g/ha / plant injury at 31 g/ha / plant injury at 62 g/ha: Oryza sativa, read-out: Plant response rating, Rice
Procedure, shortened: (§1)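 Plants were grown to the 2-leaf stage, pots flooded to 3 cm above soil, and test compounds applied directly to the paddy water, with that depth held throughout. After 13 to 15 days in a greenhouse, injury was visually rated against controls on a 0 (no effect) to 100 (complete control) scale.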

[1] = tested on: canarygrass (Phalaris minor); assay: Test C postemergence: canarygrass
Text: At the same time, plants selected from these crop and weed species and also barley (winter barley, Hordeum vulgare), canarygrass (Phalaris minor), chickweed (common chickweed, Stellaria media) windgrass (Apera spica-venti) and deadnettle (henbit deadnettle, Lamium amplexicaule) were planted in pots containing Redi-Earth® planting medium (Scotts Company, 14111 Scottslawn Road, Marysville, Ohio 43041) comprising spaghnum peat moss, vermiculite, wetting agent and starter nutrients and treated with postemergence applications of test chemicals formulated in the same manner. Plants ranged in height from 2 to 18 cm (1- to 4-leaf stage) for postemergence treatments.
(§2) Treated plants and controls were maintained in a greenhouse for 13 to 15 days, after which time all species were compared to controls and visually evaluated. Plant response ratings, summarized in Table C, are based on a scale of 0 to 100 where 0 is no effect and 100 is complete control. A dash (-) response means no test result.

[2] = tested on: sedge, umbrella (small-flower umbrella sedge, Cyperus difformis); assay: Test C flooded paddy test: sedge, umbrella; conditions: scale 0 to 100 (0 no effect, 100 complete control); for pest or weed control at 125 g/ha / pest or weed control at 250 g/ha / pest or weed control at 31 g/ha / pest or weed control at 62 g/ha: Cyperus difformis, read-out: Plant response rating, Sedge, Umbrella
Procedure, shortened: as §1

[3] = tested on: deadnettle (henbit deadnettle, Lamium amplexicaule); assay: Test D pre-/postemergence: deadnettle
Text: (§3) Seeds of plant species selected from bluegrass (annual bluegrass, Poa annua), blackgrass (Alopecurus myosuroides), canarygrass (Phalaris minor), chickweed (common chickweed, Stellaria media), galium (catchweed bedstraw, Galium aparine), bromegrass, downy (downy bromegrass, Bromus tectorum), field poppy (Papaver rhoeas), field violet (Viola arvensis), foxtail, green (green foxtail, Setaria viridis), deadnettle (henbit deadnettle, Lamium amplexicaule), ryegrass, Italian (Italian ryegrass, Lolium multiflorum), kochia (Kochia scoparia), lambsquarters (Chenopodium album), oilseed rape (Brassica napus), pigweed (Amaranthus retroflexus), Russian thistle (Salsola iberica), chamomile (scentless chamomile, Matricaria inodora), speedwell (bird's-eye speedwell, Veronica persica), barley, spring (spring barley, Hordeum vulgare), wheat, spring (spring wheat, Triticum aestivum), buckwheat, wild (wild buckwheat, Polygonum convolvulus), mustard, wild (wild mustard, Sinapis arvensis), oat, wild (wild oat, Avena fatua), radish, wild (wild radish, Raphanus raphanistrum), windgrass (Apera spica-venti), barley, winter (winter barley, Hordeum vulgare), and wheat, winter (winter wheat, Triticum aestivum) were planted into a silt loam soil and treated preemergence with test chemicals formulated in a non-phytotoxic solvent mixture which included a surfactant. At the same time, these same crop and weed species were planted in pots containing the planting medium comprising spaghnum peat moss, vermiculite, wetting agent and starter nutrients and treated with postemergence applications of the test chemicals formulated in the same manner. Plants ranged in height from 2 to 18 cm (1- to 4-leaf stage).
as §2, with “controlled growth environment” for “greenhouse”, “14” for “13”, “21 days” for “15 days,”, “D,” for “C,”

[4] = tested on: field poppy (Papaver rhoeas); assay: Test D pre-/postemergence: field poppy
Text: as §3
as §2, with “controlled growth environment” for “greenhouse”, “14” for “13”, “21 days” for “15 days,”, “D,” for “C,”

[5] = tested on: canarygrass (Phalaris minor); assay: Test D pre-/postemergence: canarygrass
Text: as §3
as §2, with “controlled growth environment” for “greenhouse”, “14” for “13”, “21 days” for “15 days,”, “D,” for “C,”

[6] = tested on: windgrass (Apera spica-venti); assay: Test D pre-/postemergence: windgrass
Text: as §3
as §2, with “controlled growth environment” for “greenhouse”, “14” for “13”, “21 days” for “15 days,”, “D,” for “C,”

[7] = tested on: wheat, spring (spring wheat, Triticum aestivum); assay: Test D pre-/postemergence: wheat, spring
Text: as §3
as §2, with “controlled growth environment” for “greenhouse”, “14” for “13”, “21 days” for “15 days,”, “D,” for “C,”

[8] = Flood (flooded paddy test), 125 g ai/ha, visual rating after 13 to 15 days
[9] = Flood (flooded paddy test), 250 g ai/ha, visual rating after 13 to 15 days
[10] = 31 g ai/ha, scale 0 to 100 (0 no effect, 100 complete control)
[11] = 62 g ai/ha, scale 0 to 100 (0 no effect, 100 complete control)
[12] = 125 g ai/ha, scale 0 to 100, 0 no effect, 100 complete control
[13] = Postemergence, 31 g ai/ha, scale 0 to 100 (0 no effect, 100 complete control)
[14] = Postemergence, 62 g ai/ha, scale 0 to 100 (0 no effect, 100 complete control)
[15] = Postemergence, 125 g ai/ha, scale 0 to 100, 0 no effect, 100 complete control
[16] = Postemergence, 16 g ai/ha, scale 0 to 100
[17] = Preemergence, 16 g ai/ha, scale 0 to 100 (0 no effect, 100 complete control)
[18] = Preemergence, 31 g ai/ha, scale 0 to 100 (0 no effect, 100 complete control)
[19] = Preemergence, 62 g ai/ha, scale 0 to 100
[20] = Preemergence, 125 g ai/ha, scale 0 to 100
[21] = Flood (flooded paddy test), 62 g ai/ha, visual rating after 13 to 15 days

With Cc1nn(-c2ccc(C(F)(F)F)cc2)nc1Cc1cccc(C(F)(F)F)c1 [Compound 124] the “Plant response rating, Rice” value (rice (Oryza sativa); [8]) was 15, the “Plant response rating, Rice” value (rice (Oryza sativa); [9]) was 20 and the “Plant response rating, Rice” value (rice (Oryza sativa); Flood, 31 g ai/ha) was 0. For the same compound, the “Plant response rating, Rice” value (rice (Oryza sativa); Flood, 62 g ai/ha) was 0, the “Plant response rating, Canarygrass” value ([1]; 16 g ai/ha, scale 0 to 100, 0 no effect, 100 complete control) was 0 and the “Plant response rating, Canarygrass” value [1, 10] was 20. For the same compound, the “Plant response rating, Canarygrass” value [1, 11] was 35, the “Plant response rating, Canarygrass” value [1, 12] was 85 and the “Plant response rating, Sedge, Umbrella” value [2, 8] was 90. For the same compound, the “Plant response rating, Sedge, Umbrella” value [2, 9] was 90, the “Plant response rating, Sedge, Umbrella” value ([2]; Flood, 31 g ai/ha) was 50 and the “Plant response rating, Sedge, Umbrella” value ([2]; Flood, 62 g ai/ha) was 90.

Work on CCc1nn(-c2ccc(C(F)(F)F)cc2)nc1Oc1cccc(OC(F)(F)F)c1 [Compound 125, 4-ethyl-5-[3-(trifluoromethoxy)phenoxy]-2-[4-(trifluoromethyl)phenyl]-2H-1,2,3-triazole] yielded a plant injury at 125 g/ha (rice (Oryza sativa); [8]) of 0%, a plant injury at 250 g/ha (rice (Oryza sativa); [9]) of 10% and a plant injury at 31 g/ha (rice (Oryza sativa); Flood, 31 g ai/ha) of 0%. The plant injury at 62 g/ha (rice (Oryza sativa); Flood, 62 g ai/ha) was 0%, the pest or weed control at 125 g/ha [2, 8] was 80% and the pest or weed control at 250 g/ha [2, 9] was 85%. For the same compound, the pest or weed control at 31 g/ha ([2]; Flood, 31 g ai/ha) was 0% and the pest or weed control at 62 g/ha ([2]; Flood, 62 g ai/ha) was 40%.

For Cc1nn(-c2ccc(F)c(C(F)(F)F)c2)nc1Oc1ccnc(C(F)(F)F)c1 [Compound 147], the “Plant response rating: Deadnettle” value [3, 13] was 95, the “Plant response rating: Deadnettle” value [3, 14] was 90 and the “Plant response rating: Deadnettle” value [3, 15] was 100. For the same compound, the “Plant response rating, Deadnettle” value [3, 16] was 65, the “Plant response rating, Deadnettle” value [3, 17] was 5 and the “Plant response rating, Deadnettle” value [3, 18] was 10. The “Plant response rating, Deadnettle” value [3, 19] was 100, the “Plant response rating, Deadnettle” value [3, 20] was 100 and the “Plant response rating: Field Poppy” value [4, 13] was 90. For the same compound, the “Plant response rating: Field Poppy” value [4, 14] was 100, the “Plant response rating: Field Poppy” value [4, 15] was 100 and the “Plant response rating, Field Poppy” value [4, 16] was 90. The “Plant response rating, Field Poppy” value [4, 17] was 55, the “Plant response rating, Field Poppy” value [4, 18] was 75 and the “Plant response rating, Field Poppy” value [4, 19] was 95. The “Plant response rating, Field Poppy” value [4, 20] was 100, the “Plant response rating: Canarygrass” value [5, 13] was 35 and the “Plant response rating: Canarygrass” value [5, 14] was 55. For the same compound, the “Plant response rating: Canarygrass” value [5, 15] was 80, the “Plant response rating, Canarygrass” value [5, 16] was 15 and the “Plant response rating, Canarygrass” value [5, 17] was 5. The “Plant response rating, Canarygrass” value [5, 18] was 35, the “Plant response rating, Canarygrass” value [5, 19] was 100 and the “Plant response rating, Canarygrass” value [5, 20] was 100. The “Plant response rating: Windgrass” value [6, 14] was 50, the “Plant response rating: Windgrass” value [6, 15] was 75 and the “Plant response rating, Windgrass” value [6, 16] was 15. The “Plant response rating, Windgrass” value ([6]; Postemergence, 31 g ai/ha, scale 0 to 100) was 25, the “Plant response rating, Windgrass” value [6, 17] was 0 and the “Plant response rating, Windgrass” value [6, 18] was 60. For the same compound, the “Plant response rating, Windgrass” value [6, 19] was 100, the “Plant response rating, Windgrass” value [6, 20] was 100 and the “Plant response rating: Wheat, Spring” value [7, 13] was 15. The “Plant response rating: Wheat, Spring” value [7, 14] was 20, the “Plant response rating: Wheat, Spring” value [7, 15] was 25 and the “Plant response rating, Wheat, Spring” value [7, 16] was 10. The “Plant response rating, Wheat, Spring” value [7, 17] was 0, the “Plant response rating, Wheat, Spring” value [7, 18] was 0 and the “Plant response rating, Wheat, Spring” value [7, 19] was 0. For the same compound, the “Plant response rating, Wheat, Spring” value [7, 20] was 5.

Cc1nn(-c2ccc(C(F)(F)F)cc2)nc1Cc1ccnc(C(F)(F)F)c1 [Compound 47, 4-[[5-methyl-2-[4-(trifluoromethyl)phenyl]-2H-1,2,3-triazol-4-yl]methyl]-2-(trifluoromethyl)pyridine] was tested, and the plant injury at 62 g/ha (rice (Oryza sativa); [21]) was 50%, the plant injury at 125 g/ha (rice (Oryza sativa); [8]) was 60% and the plant injury at 250 g/ha (rice (Oryza sativa); [9]) was 60%. The plant injury at 31 g/ha (rice (Oryza sativa); Flood, 31 g ai/ha) was 30%, the “Plant response rating, Canarygrass” value [1, 10] was 60 and the “Plant response rating, Canarygrass” value [1, 11] was 75. For the same compound, the “Plant response rating, Canarygrass” value [1, 12] was 85, the “Plant response rating, Canarygrass” value ([1]; 250 g ai/ha, scale 0 to 100) was 90 and the pest or weed control at 62 g/ha [2, 21] was 85%. For the same compound, the pest or weed control at 125 g/ha [2, 8] was 90%, the pest or weed control at 250 g/ha [2, 9] was 90% and the pest or weed control at 31 g/ha ([2]; Flood, 31 g ai/ha) was 75%.

For COc1nn(-c2ccc(C(F)(F)F)cc2)nc1Cn1ccc(C(F)(F)F)n1 [Compound 17, 4-methoxy-2-[4-(trifluoromethyl)phenyl]-5-[[3-(trifluoromethyl)-1H-pyrazol-1-yl]methyl]-2H-1,2,3-triazole], the plant injury at 62 g/ha (rice (Oryza sativa); [21]) was 15%, the plant injury at 125 g/ha (rice (Oryza sativa); [8]) was 35% and the plant injury at 250 g/ha (rice (Oryza sativa); [9]) was 45%. The plant injury at 31 g/ha (rice (Oryza sativa); Flood, 31 g ai/ha) was 10%, the pest or weed control at 62 g/ha [2, 21] was 20% and the pest or weed control at 125 g/ha [2, 8] was 30%. The pest or weed control at 250 g/ha [2, 9] was 75% and the pest or weed control at 31 g/ha ([2]; Flood, 31 g ai/ha) was 0%.

Fc1ccc(-n2nc(Cc3ccnc(C(F)(F)F)c3)c(OCC(F)(F)F)n2)cc1 [Compound 142] was tested, and the “Plant response rating, Canarygrass” value [1, 10] was 45, the “Plant response rating, Canarygrass” value [1, 11] was 80 and the “Plant response rating, Canarygrass” value [1, 12] was 85. The “Plant response rating, Canarygrass” value ([1]; 250 g ai/ha, scale 0 to 100) was 100.
